What all share (assay type): cell-based
One assay deals with A. viscosus. The assay is described as follows: Minimum Inhibitory Concentration, oral pathogens. To be noted: Actinomyces viscosus, read-out: Minimum Inhibitory Concentration. From the text:
(§1) Table 1 (below) describes the antibacterial efficacy of an exemplary compound of the present invention against common oral pathogens, A. viscosus and S. mutans.

In a further assay the test system is S. mutans. The assay is described as follows: Minimum Inhibitory Concentration, oral pathogens. To be noted: Streptococcus mutans, read-out: Minimum Inhibitory Concentration.
Excerpt: as §1

The test system of assay [1] is Corynebacterium minutissimum (C. minutissimum). The assay is described as follows: Zone of Inhibition Test (ZOI). The protocol:
(§2) The compound of Formula (II) was evaluated for its antibacterial efficacy against representative skin bacteria such as Staphylococcus aureus (S. aureus), Staphylococcus epidermidis (S. epidermidis), Corynebacterium minutissimum (C. minutissimum), Corynebacterium xerosis (C. xerosis) and Escherichia coli (E. coli). Zone of inhibition (ZOI), Minimum Inhibitory Concentration (MIC), and a Short Interval Kill Test (SIKT) were all performed, and the results are described in Tables 2-4 (below).
(§3) 20 μL of each solution was placed on separate filter disks and air dried for 20 minutes. After 20 minutes of drying, the coated disks were placed in the bacterial lawn and plates were incubated at 37° C. for 18 hours, followed by measurement of ZOI.
(§4) The antibacterial efficacy of the compound of Formula (II) was measured in comparison to triclosan, using various tests. The results are provided below in Tables 5 and 6.

Assay [2] concerns Staphylococcus aureus (S. aureus). The assay is described as follows: Zone of Inhibition Test (ZOI). The protocol:
as §2, §3, §4

For assay [3], the system named is Corynebacterium xerosis (C. xerosis). The assay is described as follows: Zone of Inhibition Test (ZOI). To be noted: 37° C. 18 hours. The protocol:
as §2
(§5) The compound of Formula (II) was dissolved in polyethylene glycol (PEG 300), or in 100% ethanol at 0.5% concentration. 20 μL of each solution was placed on separate filter disks and air dried for 20 minutes. After 20 minutes of drying, the coated disks were placed in the bacterial lawn and plates were incubated at 37° C. for 18 hours, followed by measurement of ZOI.

For assay [4], the system named is Staphylococcus epidermidis (S. epidermidis). The assay is described as follows: Zone of Inhibition Test (ZOI). To be noted: S. epiderm., 37° C. 18 hours. The protocol:
as §2, §5

In assay [5] the test system is Escherichia coli (E. coli). The assay is described as follows: Zone of Inhibition Test (ZOI). The settings on record: Example 4. The protocol: as §2, §5, §4
The subject of assay [6] is Corynebacterium minutissimum (C. minutissimum). The assay is described as follows: Minimum Inhibitory Concentration (MIC), skin bacteria. The settings on record: for MIC: Corynebacterium minutissimum, read-out: Minimum Inhibitory Concentration. The protocol: as §2
(§6) MIC against four common skin pathogens was evaluated for the compound of Formula (II), using the following method: A two-fold dilution of the compound of Formula (II) was prepared in a 96 well plate and a constant amount of bacteria added in each well. After 18-24 hours of incubation, bacterial growth was measured by using a Spectrophotometric Micro-plate Reader and the MIC values were determined.
as §4

The subject of assay [7] is Escherichia coli (E. coli). The description is as above. As to the method:
as §2, §6, §4

Assay [8] deals with Staphylococcus aureus (S. aureus). The assay is described as above. To be noted: for MIC: Staphylococcus aureus, read-out: Minimum Inhibitory Concentration. The protocol:
as §2, §6, §4

Assay [9] relates to Corynebacterium xerosis (C. xerosis). The description is as above. The settings on record: read-out: Minimum Inhibitory Concentration. The protocol:
as §2, §6

Assay [10] relates to Staphylococcus epidermidis (S. epidermidis). The assay is described as above. To be noted: for MIC: Staphylococcus epidermidis, read-out: Minimum Inhibitory Concentration. The protocol:
as §2, §6

A further assay concerns bacterial suspension. The assay is described as follows: Short Interval Kill Test (SIKT). As to the method: SIKT determines the kill effect of the test article at a predetermined exposure time. […] Briefly, 1.2 mL of the compound of Formula (II)+PEG 300 was transferred into a sterile test tube, to which 0.2 mL of a freshly prepared bacterial suspension (OD adjusted to 0.1 at 620 nm) was added and gently mixed. The reaction was neutralized at the 1 minute or at the 5 minute point by adding a neutralizing broth. The reaction mixture was further diluted with letheen broth in 10-fold fashion and plated on MCA (Microbial Count Agar) plates for viable bacterial count.

The test system of the next assay is E. coli. The assay is described as follows: Rapid Agar Plate Assay (RAPA). The settings on record: vs tap water washed plates. The protocol:
(§7) The compound of Formula (II) was mixed with a base bar soap chip and tested for any residual antibacterial activity against S. aureus and E. coli by a rapid agar plate assay (RAPA). Briefly, the method involves washing TSA plates with the soap samples for 10 seconds, lathering for another 40 seconds and finally rinsing for 10 seconds. After air drying for 30 minutes, 100 μL of freshly prepared bacterial suspension (density was adjusted to 0.1 OD at 620 nm) was applied on the treated plates and then plates were incubated at 37° C. for about 18 hours. TSA plates washed with normal tap water were used as negative control. Next day, bacterial colonies were counted and converted to log 10 and the log reductions as a result of washing with samples were calculated.

The subject of the next assay is S. aureus. The assay is described as follows: Rapid Agar Plate Assay (RAPA). The settings on record: for Log reduction in Bacterial Count: vs tap water washed plates. The protocol:
as §7

Where [11] appears, read: 0.5% in EtOH, 20 μL on filter disk, 37° C. 18 hours.
[12] abbreviates: 0.5% in PEG 300, 20 μL on filter disk, 37° C. 18 hours.
Where [13] appears, read: 0.5% in EtOH, 20 μL on filter disk.
The mark [14] stands for this setting: 0.5% in PEG 300, 20 μL on filter disk.

The values below come from US9334212B2, “Compounds and compositions” (Colgate-Palmolive Company, priority 2010, dated 2016).

Converted amounts (≈) assume the structure as drawn. Like-named read-outs stand apart in the source and are kept apart here.

On to `C=CCc1cc(Cl)c(O)c(-c2cc(CC=C)cc(Cl)c2O)c1` [Compound of Formula (II)], for which the MIC is 0.5 to 1 µg/mL in the assay with A. viscosus (A. viscosus); 0.5 to 1 µg/mL with S. mutans (S. mutans); 9.7 µg/mL in assay [6] (C. minutissimum, 0.5% active, Example 4); 39 µg/mL in assay [6] (C. minutissimum, + EtOH, 18-24 hours incubation); 9.77 µg/mL in assay [6] (C. minutissimum, + PEG 300, 18-24 hours incubation); 1250 µg/mL in [7] (E. coli, 0.5% active, Example 4, read-out: Minimum Inhibitory Concentration). The MIC is 2.44 µg/mL in assay [8] (S. aureus, 0.5% active, Example 4); 39 µg/mL in assay [8] (S. aureus, + EtOH, 18-24 hours incubation); 19.5 µg/mL in assay [8] (S. aureus, + PEG 300, 18-24 hours incubation); 156 µg/mL in assay [9] (C. xerosis, + EtOH, 18-24 hours incubation); 78 µg/mL in assay [9] (C. xerosis, + PEG 300, 18-24 hours incubation); 39 µg/mL in assay [10] (S. epiderm., + PEG 300, 18-24 hours incubation). Also, the “Zone of Inhibition” value in assay [1] (setting [11]) is 17 mm; in [1] (setting [12]), 21 mm; in assay [1] (0.5%, Example 4), 22 mm; in assay [2] (setting [11]) it was 13 mm; in assay [2] (setting [12]) it was 15 mm; in [2] (0.5%, Example 4), 20 mm. Also, the “Zone of Inhibition” value in assay [3] (setting [13]) is 14 mm; in [3] (setting [14]), 15 mm; in assay [4] (setting [13]), 15 mm; in assay [4] (setting [14]), 16 mm; in assay [5] (0.5%) it was 0 mm. For the same compound, the “Minimum Inhibitory Concentration” value in assay [10] (S. epiderm., + EtOH, 18-24 hours incubation) is given as 39 ppm. In addition, the “Short Interval Kill Test kill effect” value is 65.18 in the assay on bacterial suspension (0.5% + PEG 300, exposure time 1 minute) and 87.37 with bacterial suspension (0.5% + PEG 300, exposure time 5 minute). Also, the “Log reduction in Bacterial Count” value in the assay on E. coli (0.5% in soap chip) came to 0.09 log; with S. aureus (0.5% in soap chip), 0.506 log; in the assay on S. aureus (0.5% in soap chip, listed as compound of Formula (II)), 0.5 log. In addition, the “reduction in the growth” value with S. aureus (bar soap chip containing 0.5%) is over 50%.
For `C=CCc1ccc(O)c(-c2cc(CC=C)ccc2O)c1` [Magnolol, magnolol], the MIC in the assay with A. viscosus and with S. mutans was 32 µg/mL (≈ 120 µM) each time.
`O=C(Nc1ccc(Cl)cc1)Nc1ccc(Cl)c(Cl)c1` [TCC, reference compound]: the “Short Interval Kill Test kill effect” value in the assay on bacterial suspension (0.5%, exposure time 1 minute) was 56.54; with bacterial suspension (0.5%, exposure time 5 minute), 74.11. The “Log reduction in Bacterial Count” value in the assay on E. coli (0.4% TCC bar) was 0.167 log; in the assay with S. aureus (0.4% TCC bar) it was 2.409 log.
On to `Oc1cc(Cl)ccc1Oc1ccc(Cl)cc1Cl` [Triclosan, 5-chloro-2-(2,4-dichlorophenoxy)phenol, reference compound], for which the MIC was 1 to 2 µg/mL (≈ 3.45 to 6.91 µM) in the assay with A. viscosus; 1 to 2 µg/mL (≈ 3.45 to 6.91 µM) with S. mutans; 4.88 µg/mL (≈ 16.9 µM) in assay [6]; under 2.44 µg/mL in assay [7] (read-out: Minimum Inhibitory Concentration); under 2.44 µg/mL in [8]; 9.76 µg/mL (≈ 33.7 µM) in assay [9]. Moreover, in [10], the MIC is under 2.44 µg/mL. The “Zone of Inhibition” value came out at 21 mm in [1] (0.15%, Example 4); 50 mm in assay [2] (0.15%, Example 4); 40 mm in [5] (0.15%). In addition, the “Minimum Inhibitory Concentration” value was 4.88 ppm in assay [6] (C. minutissimum, 0.15% active, Example 4) and under 2.44 ppm in assay [8] (S. aureus, 0.15% active, Example 4). For the same compound, the “Log reduction in Bacterial Count” value came to 2.387 log with E. coli (0.25% Triclosan bar) and 2.409 log with S. aureus (0.25% Triclosan bar).
